From PubChem BioAssay (NCI)
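Briefly, cells in 96-well plates were exposed to five compound concentrations for 48 h, and endpoints were estimated by linear interpolation. TGI is the concentration that stops growth completely.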

Columns and labels:
Experiment in all cases: NCI anticancer screen, dose series, 48 h
SF-539 CNS = test system: SF-539 CNS
UO-31 renal = test system: UO-31 renal
OVCAR-5 ovarian = test system: OVCAR-5 ovarian
IGROV1 ovarian = test system: IGROV1 ovarian
MDA-MB-231 breast = test system: MDA-MB-231 breast
MDA-MB-435 = test system: MDA-MB-435
KM12 colon = test system: KM12 colon
OVCAR-4 ovarian = test system: OVCAR-4 ovarian
HS 578T breast = test system: HS 578T breast
SF-295 CNS = test system: SF-295 CNS
SK-MEL-28 melanoma = test system: SK-MEL-28 melanoma
HCT-15 colon = test system: HCT-15 colon
HCT-116 colon = test system: HCT-116 colon
NCI/ADR-RES ovarian = test system: NCI/ADR-RES ovarian
COLO 205 colon = test system: COLO 205 colon
HL-60(TB) leukemia = test system: HL-60(TB) leukemia
NCI-H522 lung = test system: NCI-H522 lung
MCF7 breast = test system: MCF7 breast
SW-620 colon = test system: SW-620 colon
NCI-H23 lung = test system: NCI-H23 lung
PC-3 prostate = test system: PC-3 prostate
SK-OV-3 ovarian = test system: SK-OV-3 ovarian
EKVX NSCLC = test system: EKVX NSCLC
K-562 leukemia = test system: K-562 leukemia
BT-549 breast = test system: BT-549 breast
SR leukemia = test system: SR leukemia
SNB-75 CNS = test system: SNB-75 CNS
A549 NSCLC = test system: A549 NSCLC
UACC-257 melanoma = test system: UACC-257 melanoma
OVCAR-3 ovarian = test system: OVCAR-3 ovarian
UACC-62 melanoma = test system: UACC-62 melanoma
NCI-H226 lung = test system: NCI-H226 lung
MDA-N = test system: MDA-N
HOP-62 NSCLC = test system: HOP-62 NSCLC
786-0 renal = test system: 786-0 renal
HCC-2998 colon = test system: HCC-2998 colon
A498 renal = test system: A498 renal
RXF 393 renal = test system: RXF 393 renal
MALME-3M melanoma = test system: MALME-3M melanoma
HT29 colon = test system: HT29 colon
TK-10 renal = test system: TK-10 renal
SF-268 CNS = test system: SF-268 CNS
DU-145 prostate = test system: DU-145 prostate
ACHN renal = test system: ACHN renal
SNB-19 CNS = test system: SNB-19 CNS
U251 CNS = test system: U251 CNS
CCRF-CEM leukemia = test system: CCRF-CEM leukemia
CAKI-1 renal = test system: CAKI-1 renal
HOP-92 NSCLC = test system: HOP-92 NSCLC
RPMI-8226 leukemia = test system: RPMI-8226 leukemia
MOLT-4 leukemia = test system: MOLT-4 leukemia
M14 melanoma = test system: M14 melanoma
LOX IMVI melanoma = test system: LOX IMVI melanoma
NCI-H460 lung = test system: NCI-H460 lung
OVCAR-8 ovarian = test system: OVCAR-8 ovarian
SN12C renal = test system: SN12C renal
SK-MEL-5 melanoma = test system: SK-MEL-5 melanoma
SK-MEL-2 melanoma = test system: SK-MEL-2 melanoma
T-47D breast = test system: T-47D breast

Compound: C=C(Cl)[C@](Cl)(CBr)CC[C@@H](Br)C(C)(C)Cl
- TGI (SF-539 CNS): 1.28 µM
- TGI (UO-31 renal): 2.41 µM
- TGI (OVCAR-5 ovarian): 2.98 µM
- TGI (IGROV1 ovarian): 21.2 µM
- TGI (MDA-MB-231 breast): 3.39 µM
- TGI (MDA-MB-435): 4.03 µM
- TGI (KM12 colon): 2.26 µM
- TGI (OVCAR-4 ovarian): 3.44 µM
- TGI (HS 578T breast): 1.41 µM
- TGI (SF-295 CNS): 2.23 µM
- TGI (SK-MEL-28 melanoma): 3.27 µM
- TGI (HCT-15 colon): 4.64 µM
- TGI (HCT-116 colon): 1.38 µM
- TGI (NCI/ADR-RES ovarian): 4.32 µM
- TGI (COLO 205 colon): 3.41 µM
- TGI (HL-60(TB) leukemia): 2.06 µM
- TGI (NCI-H522 lung): 30.2 µM
- TGI (MCF7 breast): 2.18 µM
- TGI (SW-620 colon): 5.03 µM
- TGI (NCI-H23 lung): 28.5 µM
- TGI (PC-3 prostate): 1.18 µM
- TGI (SK-OV-3 ovarian): 25.3 µM
- TGI (EKVX NSCLC): 8.04 µM
- TGI (K-562 leukemia): 16.3 µM
- TGI (BT-549 breast): 11.7 µM
- TGI (SR leukemia): 25.5 µM
- TGI (SNB-75 CNS): 2.09 µM
- TGI (A549 NSCLC): 5.49 µM
- TGI (UACC-257 melanoma): 2.99 µM
- TGI (OVCAR-3 ovarian): 1.58 µM
- TGI (UACC-62 melanoma): 19.3 µM
- TGI (NCI-H226 lung): 32.8 µM
- TGI (MDA-N): 2.47 µM
- TGI (HOP-62 NSCLC): 0.9 µM
- TGI (786-0 renal): 0.552 µM
- TGI (HCC-2998 colon): 2.93 µM
- TGI (A498 renal): 3.41 µM
- TGI (RXF 393 renal): 0.576 µM
- TGI (MALME-3M melanoma): 24.2 µM
- TGI (HT29 colon): 2.06 µM
- TGI (TK-10 renal): 3.4 µM
- TGI (SF-268 CNS): 2.18 µM
- TGI (DU-145 prostate): 2.74 µM
- TGI (ACHN renal): 2.31 µM
- TGI (SNB-19 CNS): 3.27 µM
- TGI (U251 CNS): 0.335 µM
- TGI (CCRF-CEM leukemia): 46.6 µM
- TGI (CAKI-1 renal): 0.751 µM
- TGI (HOP-92 NSCLC): 1.1 µM
- TGI (RPMI-8226 leukemia): 0.363 µM
- TGI (MOLT-4 leukemia): 31.9 µM
- TGI (M14 melanoma): 30.7 µM
- TGI (LOX IMVI melanoma): 32.1 µM
- TGI (NCI-H460 lung): 2.46 µM
- TGI (OVCAR-8 ovarian): 2.86 µM
- TGI (SN12C renal): 17.6 µM
- TGI (SK-MEL-5 melanoma): 24.9 µM

Compound: CC(/C=C/c1ccccc1)=N\NC(=S)N/N=C(C)/C=C/c1ccccc1
- TGI (SF-539 CNS): 47.2 µM
- TGI (UO-31 renal): > 100 µM
- TGI (OVCAR-5 ovarian): > 100 µM
- TGI (IGROV1 ovarian): > 100 µM
- TGI (MDA-MB-231 breast): 33.9 µM
- TGI (MDA-MB-435): > 100 µM
- TGI (OVCAR-4 ovarian): 28.5 µM
- TGI (HS 578T breast): > 100 µM
- TGI (SF-295 CNS): 61.6 µM
- TGI (SK-MEL-28 melanoma): > 100 µM
- TGI (HCT-15 colon): > 100 µM
- TGI (HCT-116 colon): > 100 µM
- TGI (NCI/ADR-RES ovarian): 99.5 µM
- TGI (COLO 205 colon): > 100 µM
- TGI (HL-60(TB) leukemia): > 100 µM
- TGI (NCI-H522 lung): 69 µM
- TGI (MCF7 breast): > 100 µM
- TGI (SW-620 colon): > 100 µM
- TGI (NCI-H23 lung): > 100 µM
- TGI (PC-3 prostate): > 100 µM
- TGI (SK-OV-3 ovarian): > 100 µM
- TGI (EKVX NSCLC): > 100 µM
- TGI (K-562 leukemia): > 100 µM
- TGI (BT-549 breast): 56.7 µM
- TGI (SR leukemia): > 100 µM
- TGI (SNB-75 CNS): 48.7 µM
- TGI (A549 NSCLC): > 100 µM
- TGI (UACC-257 melanoma): > 100 µM
- TGI (OVCAR-3 ovarian): 66.5 µM
- TGI (UACC-62 melanoma): > 100 µM
- TGI (SK-MEL-2 melanoma): 50.3 µM
- TGI (NCI-H226 lung): 63.1 µM
- TGI (T-47D breast): > 100 µM
- TGI (MDA-N): > 100 µM
- TGI (HOP-62 NSCLC): 57.7 µM
- TGI (786-0 renal): 29.5 µM
- TGI (HCC-2998 colon): > 100 µM
- TGI (A498 renal): 7.51 µM
- TGI (RXF 393 renal): 40.7 µM
- TGI (MALME-3M melanoma): > 100 µM
- TGI (HT29 colon): > 100 µM
- TGI (TK-10 renal): 46 µM
- TGI (SF-268 CNS): 21.7 µM
- TGI (DU-145 prostate): > 100 µM
- TGI (ACHN renal): > 100 µM
- TGI (SNB-19 CNS): 74.7 µM
- TGI (U251 CNS): 16.2 µM
- TGI (CCRF-CEM leukemia): > 100 µM
- TGI (MOLT-4 leukemia): > 100 µM
- TGI (M14 melanoma): > 100 µM
- TGI (LOX IMVI melanoma): 28.8 µM
- TGI (NCI-H460 lung): 25.6 µM
- TGI (OVCAR-8 ovarian): 64.5 µM
- TGI (SN12C renal): > 100 µM
- TGI (SK-MEL-5 melanoma): 42.8 µM

Compound: COc1cc2c(cc1OC)C1CN3CCCC3C(O)C1c1cc(OC)c(OC)cc1-2 (stereo unspecified)
- TGI (UO-31 renal): > 100 µM
- TGI (OVCAR-5 ovarian): > 100 µM
- TGI (IGROV1 ovarian): > 100 µM
- TGI (MDA-MB-231 breast): > 100 µM
- TGI (MDA-MB-435): > 100 µM
- TGI (KM12 colon): > 100 µM
- TGI (OVCAR-4 ovarian): > 100 µM
- TGI (HS 578T breast): > 100 µM
- TGI (SF-295 CNS): > 100 µM
- TGI (SK-MEL-28 melanoma): > 100 µM
- TGI (HCT-15 colon): > 100 µM
- TGI (HCT-116 colon): > 100 µM
- TGI (NCI/ADR-RES ovarian): > 100 µM
- TGI (COLO 205 colon): > 100 µM
- TGI (HL-60(TB) leukemia): > 100 µM
- TGI (NCI-H522 lung): > 100 µM
- TGI (MCF7 breast): > 100 µM
- TGI (SW-620 colon): > 100 µM
- TGI (NCI-H23 lung): > 100 µM
- TGI (SK-OV-3 ovarian): > 100 µM
- TGI (EKVX NSCLC): > 100 µM
- TGI (K-562 leukemia): > 100 µM
- TGI (BT-549 breast): > 100 µM
- TGI (SR leukemia): > 100 µM
- TGI (A549 NSCLC): > 100 µM
- TGI (UACC-257 melanoma): > 100 µM
- TGI (UACC-62 melanoma): > 100 µM
- TGI (SK-MEL-2 melanoma): > 100 µM
- TGI (T-47D breast): > 100 µM
- TGI (MDA-N): > 100 µM
- TGI (HOP-62 NSCLC): > 100 µM
- TGI (786-0 renal): > 100 µM
- TGI (HCC-2998 colon): > 100 µM
- TGI (A498 renal): > 100 µM
- TGI (RXF 393 renal): > 100 µM
- TGI (MALME-3M melanoma): > 100 µM
- TGI (HT29 colon): > 100 µM
- TGI (TK-10 renal): > 100 µM
- TGI (SF-268 CNS): > 100 µM
- TGI (DU-145 prostate): > 100 µM
- TGI (ACHN renal): > 100 µM
- TGI (SNB-19 CNS): > 100 µM
- TGI (U251 CNS): > 100 µM
- TGI (CCRF-CEM leukemia): > 100 µM
- TGI (CAKI-1 renal): > 100 µM
- TGI (HOP-92 NSCLC): > 100 µM
- TGI (RPMI-8226 leukemia): > 100 µM
- TGI (MOLT-4 leukemia): > 100 µM
- TGI (M14 melanoma): > 100 µM
- TGI (LOX IMVI melanoma): > 100 µM
- TGI (NCI-H460 lung): > 100 µM
- TGI (OVCAR-8 ovarian): > 100 µM
- TGI (SN12C renal): > 100 µM
- TGI (SK-MEL-5 melanoma): > 100 µM
